In ChEMBL document CHEMBL2034840, “Automated generation of turn mimetics: proof of concept study for the MC4 receptor” (Bioorg Med Chem, 2012) one finds Ki data, which are given here for 18 compounds.

Usually Ki stands for the equilibrium dissociation constant of an inhibitor or competing ligand from its target. A high value points to weaker binding.

Each structure is given as a SMILES string.

The target in the first assay is Melanocortin receptor 4 (Homo sapiens, UniProt P32245). As to the kind of experiment: Displacement of [125I]NDPMSH from human MC4 receptor expressed in HEK293 cells after 2 hrs by liquid scintillation counting. The class given is cell-based.
Chain of Melanocortin receptor 4 (P32245 whole entry): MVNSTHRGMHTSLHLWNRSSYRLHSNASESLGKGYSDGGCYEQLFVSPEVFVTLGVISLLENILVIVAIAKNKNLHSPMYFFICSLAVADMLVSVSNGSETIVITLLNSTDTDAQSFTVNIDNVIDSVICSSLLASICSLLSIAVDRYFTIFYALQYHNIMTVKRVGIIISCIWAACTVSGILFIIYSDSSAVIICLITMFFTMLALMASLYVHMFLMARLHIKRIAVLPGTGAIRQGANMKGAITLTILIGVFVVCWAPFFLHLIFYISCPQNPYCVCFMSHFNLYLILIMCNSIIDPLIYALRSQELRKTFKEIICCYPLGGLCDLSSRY
Settings: not given
In general terms: Loss of bound radioactivity is the signal in a displacement assay; it reports binding, not function.
Compound `O=C(NCCCc1ccccc1)[C@H]1CNC[C@H]1C(=O)NCc1ccc(C(F)(F)F)cc1` yielded a Ki of 5800 nM.

As for `O=C(CNC(=O)[C@H]1CNC[C@H]1C(=O)NCCc1c[nH]c2ccccc12)c1ccccc1`, the Ki came to 5500 nM.

For the compound `O=C(NCc1ccccc1)[C@H]1CNC[C@H]1C(=O)NCCc1c[nH]c2ccccc12`, the Ki was 5500 nM.

Regarding `O=C(NCc1ccccc1)[C@@H]1CNC[C@H]1C(=O)NCc1ccccc1`, affinity was put at a Ki of 900 nM.

In turn, `O=C(NCCc1ccccc1)[C@@H]1CNC[C@H]1C(=O)NCc1ccccc1` gave a Ki of 1000 nM.

`NCCNC(=O)[C@@H]1CNC[C@H]1C(=O)NC(=O)c1ccccc1` displayed a Ki of 5300 nM.

As to `O=C(NCc1ccccc1)[C@@H]1CNC[C@H]1C(=O)Nc1cccc(-c2ccccc2)c1`, affinity was put at a Ki of 6600 nM.

Consider `O=C(NCCc1cccc(F)c1)[C@H]1CN(CC2CC2)C[C@H]1C(=O)NC1CCN(Cc2ccccc2)C1` (mixture of isomers), for which affinity was put at a Ki of 1800 nM.

Consider `O=C(NCCc1cccc(Cl)c1)[C@H]1CN(CC2CC2)C[C@H]1C(=O)NC1CCN(Cc2ccccc2)C1` (mixture of isomers), for which the Ki is 670 nM.

Turning to `O=C(NCCc1ccc(Cl)cc1)[C@H]1CN(CC2CC2)C[C@H]1C(=O)NC1CCN(Cc2ccccc2)C1` (mixture of isomers), the affinity corresponds to a Ki of 380 nM.

In turn, `O=C(NCCc1ccc(Cl)cc1Cl)[C@H]1CN(CC2CC2)C[C@H]1C(=O)NC1CCN(Cc2ccccc2)C1` (mixture of isomers) yielded a Ki of 160 nM.

On to `O=C(NCc1cccc(Cl)c1)[C@H]1CN(CC2CC2)C[C@H]1C(=O)NC1CCN(Cc2ccccc2)C1` (mixture of isomers), for which the Ki turned out to be 400 nM.

As for `O=C(NCc1ccc(Cl)cc1Cl)[C@H]1CN(CC2CC2)C[C@H]1C(=O)NC1CCN(Cc2ccccc2)C1` (mixture of isomers), the Ki worked out at 70 nM.

In the case of `O=C(NCCc1ccccc1)[C@H]1CN(CC2CC2)C[C@H]1C(=O)NC1CCN(Cc2ccccc2)C1` (mixture of isomers), the Ki came out at 2600 nM.

In turn, `O=C(NCCc1ccccc1)[C@H]1CN(CCO)C[C@H]1C(=O)NC1CCN(Cc2ccccc2)C1` (mixture of isomers) registered a Ki of 6200 nM.

`O=C(NCCc1ccccc1)[C@H]1CN(CCOc2ccccc2)C[C@H]1C(=O)NC1CCN(Cc2ccccc2)C1` (mixture of isomers): affinity was put at a Ki of 1000 nM.

For the compound `O=C(NCCc1ccccc1)[C@H]1CNC[C@H]1C(=O)NC1CCN(Cc2ccccc2)C1` (stereo in doubt; 3a), the inhibition constant Ki was found to be 5000 nM.

The same assay, now with this note: hek293.
`O=C(NCCc1ccccc1)[C@H]1CNC[C@H]1C(=O)NC1CCN(Cc2ccccc2)C1` (mixture of isomers): the Ki was found to be 5000 nM.
